# Data taken from patent US12226382B2, “Methods for treating microglial dysfunction” (Washington University, priority 2017, dated 2025).
# Columns and labels:
# [1] = system: Trem-2 deficient macrophages; test: Supplementation of Trem2-deficient macrophages with creatine analogs; assay type: cell-based, mouse; details: supplemented media
# [2] = compared with phosphocreatine; cited from earlier work
# Trem2−/− BMDMs [3] = test: ER stress in BMDM (LC3 and phospho-Akt immunoblots); assay type: cell-based, mouse; details: Trem2−/− BMDMs compared with WT BMDMs, 10% LCCM
# Protocol: (§1) To prepare bone marrow-derived macrophages, femurs and tibias were removed and flushed with PBS. Cells were counted and plated at 2.5×10^6 cells/100 mm petri dish in RPMI supplemented with Glutamax, penicillin/streptomycin, non-essential amino acids, pyruvate, and 10% heat inactivated fetal bovine serum (complete RPMI) and 10% L-cell conditioned medium (LCCM). Cells were cultured for 4-5 days before use. Microglia were prepared as previously described (Wang et al., 2015). Briefly, brains were dissociated by using a Neural Tissue Dissociation Kit (T) (Miltenyi Biotech Cat. Number 130-093-231). Cell suspensions were labeled with anti-mouse CD45 magnetic beads and isolated on LS columns (Miltenyi Biotic). Cells were plated onto poly-L-lysine coated polystyrene plates in complete RPMI supplemented with 20% LCCM and 10 ng/ml human TGF-β. Media was changed on day 3 post plating and cells were used 5-7 days post plating. ATP concentrations were determined with an ATP Determination Kit (Invitrogen).
# (§2) BMDM or microglia were lysed in RIPA buffer (50 mM Tris, 150 mM NaCl, 1% SDS, and 1% Triton X100) containing PMSF, leupeptin, activated sodium orthovanidate, apoprotinin, and phosphatase inhibitor cocktail 3 (Sigma Aldrich Cat. Number P0044). Lysates were flash frozen on dry ice and stored at −80° C. until use. Lysates were thawed and 4× LDS running buffer and 10% β-mercaptoethanol were added. […]
# Trem2−/− BMDMs [4] = test: Autophagic flux in BMDM with lysosomal inhibitor (LC3 immunoblot); assay type: cell-based, mouse; details: bafilomycin for 5 hours prior to harvest
# Protocol: as §1, §2
# 5XFAD mice = test: Dietary cyclocreatine in 5XFAD mice: confocal microscopy of brain; assay type: in vivo, mouse; details: cyclocreatine-treated 5XFAD mice vs untreated Trem2−/− 5XFAD mice
# Description: (§3) The generation of Trem2^−/− and Trem2^−/− SXFAD mice has been described previously (Oakley et al., 2006; Turnbull et al., 2006; Wang et al., 2015). All mice were on a C57BL/6 background. Age and sex matched mice were used for all experiments; experimental cohorts of mice were cohoused from birth to control for the microbiota. For in vivo cyclocreatine treatment 10-week old mice were put on cyclocreatine-containing water, treatment was continued until mice reached 8 months of age (Santa Cruz SC-217964 S). Desired intake of cyclocreatine was approximately 0.28 mg/g of body weight/day, which is approximately the same as the standard creatine dose used in humans of 285 mg/kg of body weight/day (Kurosawa et al., 2012). Cyclocreatine was administered in drinking water at a final concentration of 2.33 mg/ml. The Institutional Animal Care and Use Committee at Washington University in St. Louis approved all protocols used in this study.
# Confocal microscopy analysis was performed as previously described (Wang et al., 2015). Briefly, mice were anesthetized with ketamine/xylazine and perfused with ice-cold PBS containing 1 U/ml of heparin. Brains were fixed in 4% PFA overnight at 4° C. rinsed in PBS and incubated overnight at 4° C. in 30% sucrose before freezing in a 2:1 mixture of 30% sucrose and optimal cutting temperature compound. […]
# Trem2-deficient BMDMs = test: Extracellular acidification rate (ECAR), XF96 Extracellular Flux Analyzer; assay type: cell-based, mouse; details: overnight 0.5% LCCM, 10 mM cyclocreatine
# Protocol: as §1, with “(Invitrogen). For real-time analysis of extracellular acidification rates (ECAR) macrophages were analyzed using an XF96 Extracellular Flux Analyzer (Agilent Technologies). Cells were incubated overnight in complete RPMI in the indicated concentration of LCCM with or without cyclocreatine (10 mM). […]” for “(Invitrogen).”
# Trem2−/− BMDM = test: Viability of BMDM in 0.5% LCCM; assay type: cell-based, mouse; details: Trem2-deficient BMDMs, 40 hours in 0.5% LCCM
# creatine kinase = details: in vitro and in vivo; cited from earlier work
# Trem2−/− 5XFAD mice = test: Dietary cyclocreatine in Trem2−/− 5XFAD mice: TEM and confocal microscopy of brain; assay type: in vivo, mouse
# Description: as §3
# For quantitation of multivesicular/multilamellar structures, 30 cells that were cross-sectioned through the nucleus (indicating cross-section through the middle of cell) were randomly chosen, and images of each cell were taken at 6,000× and 20,000× magnification. The cross-sectional area of each of the multivesicular structures were determined using Image J 1.38 g (National Institutes of Health, USA, customized for AMT images). Data is expressed as the 1) total number of a multivesicular/multilammelar structures per cross-sectional area of cytosol and 2) the total cross-sectional area of multivesicular/multilamellar structures per area of cytosol.
# Confocal microscopy analysis was performed as previously described (Wang et al., 2015). Briefly, mice were anesthetized with ketamine/xylazine and perfused with ice-cold PBS containing 1 U/ml of heparin. Brains were fixed in 4% PFA overnight at 4° C. rinsed in PBS and incubated overnight at 4° C. in 30% sucrose before freezing in a 2:1 mixture of 30% sucrose and optimal cutting temperature compound. Serial 40 μm coronal sections were cut on a cryo-sliding microtome. Floating sections from 1.1 mm Bregma to 0.8 mm Bregma for cortical imaging or slides with fixed human sections were stained with lba-1 (Waco Chemicals Cat. Number 019-19741) overnight at 4° C. followed by staining with anti-rabbit IgG DyLight 549 (Vector Laboratories Cat. Number DI-1549) and methoxy-X04 (Tocris Cat. Number 4920) for 1 hour at RT. Finally, sections were stained for with anti-LC3 Alexa 488±anti-cleaved caspase 3 (Cell Signaling Technologies Cat. Number 13082 and 9602). Images were collected using a Nikon Al Rsi+ confocal microscope. Images were then processed with Imaris 7.7 (Bitplane).
# Positions of microglia and positions and volumes of plaques within z-stacks were derived from analysis in Imaris, and microglia-plaque association was determined using automated scripts in Matlab. Briefly, each plaque in the z-stack was modeled as an idealized sphere with the same volume and center of mass. Microglia density within 15 μm of the plaque surface was determined by isolating the voxels of the image that fall within 15 μm of the edge of the idealized plaque. The number of microglia contained in these voxels was divided by the total volume of those voxels to obtain density for a single plaque. Densities of all plaques in a z-stack were averaged together, and the resulting values were averaged together for all z-stacks corresponding to a single animal.
# To measure total plaque area, brain sections were stained with methoxy X04. Images were collected using a Nikon Eclipse 80i microscope. For quantitative analysis, images were converted to 8-bit greyscale and stitched using the “Stitching” plugin in ImageJ. Cortex (˜1.1 mm Bregma to 0.8 mm Bregma) and hippocampus (˜−1.7 Bregma to −2.4 Bregma) were determined by manual selection. […]
# Trem2−/− BMDMs [5] = test: Immunoblots for autophagy (LC3, p62) and mTOR signaling in BMDM in limiting CSF1 with rescuing agent; assay type: cell-based, mouse; details: Trem2-deficient BMDMs, overnight 0.5% LCCM, 5 mM cyclocreatine
# Protocol: as §1, §2
# [6] = system: microglia from Trem2−/− 5XFAD mice; test: Immunoblots of microglia sorted ex vivo from cyclocreatine-treated mice; assay type: in vivo, mouse; details: microglia isolated ex vivo, cyclocreatine vs untreated
# Description: as §3
# Microglia were isolated from the indicated animals as previously described (Wang et al., 2015). CD45^+, CD11 b^+, F4/80^+ (Biolegend Cat. Number 103134, eBioscience Cat. Numbers 11-0112 and 17-4801) cells in the brain were fluorescence-activated cell-sorted (FACS) directly into RLT-plus lysis buffer for microarray or 2% FBS in PBS for TEM or immunoblot lysates. For microarray RNA extraction was performed using a RNeasy micro kit (QIAGEN). […]
# [7] = cited from earlier work
# [8] = Trem2−/− 5XFAD mice, cyclocreatine in drinking water from 10 weeks to 8 months
# [9] = Trem2−/− 5XFAD mice, cyclocreatine vs untreated
# [10] = cyclocreatine treated Trem2−/− 5XFAD mice
molecule,measurement,setting,value
phosphocreatine,autophagy,[1],prevent
same,cell death,[1],prevent
same,metabolic activity / metabolic capacity,[1],rescue
phosphocyclocreatine [cyclocreatine phosphate],stability of the phosphorous-nitrogen (P N) bond,[2],more stable than that of phosphocreatine
tunicamycin,Akt S473 phosphorylation,Trem2−/− BMDMs [3],less
same,LC3II/LC3I ratios,Trem2−/− BMDMs [3],greater
"CO/C1=C\C(C)=C\[C@@H](C)[C@@H](O)[C@@H](C)C/C(C)=C/C=C/[C@H](OC)[C@@H]([C@@H](C)[C@@H](O)[C@H](C)[C@@]2(O)C[C@@H](O)[C@H](C)[C@@H](C(C)C)O2)OC1=O [bafilomycin, Bafilomycin A1]",LC3II,Trem2−/− BMDMs [4],greatly increased
"NC1=NCCN1CC(=O)O [cyclocreatine, 1-carboxymethyl-2-iminoimidazolidine]",Spp1+ microglia,5XFAD mice,significantly more
same,ECAR,Trem2-deficient BMDMs,improved
same,autophagy,[1],prevent
same,cell death,[1],prevent
same,metabolic activity / metabolic capacity,[1],rescue
same,viability,Trem2−/− BMDM,increased
same,phosphorylation by creatine kinase in the forward reaction,creatine kinase,phosphorylated efficiently
same,engulfment of plaque particulates by microglia,Trem2−/− 5XFAD mice; 8 months of age,did not moderate
same,number of LC3 puncta/cell,Trem2−/− 5XFAD mice; [8],significantly decreased
same,percentage of LC3+ microglia,Trem2−/− 5XFAD mice; [8],significantly decreased
same,percentage of cleaved caspase-3+ microglia,Trem2−/− 5XFAD mice; [8],significantly decreased
same,multivesicular/multilamellar structures in microglia (TEM),"Trem2−/− 5XFAD mice; Trem2−/− 5XFAD mice, cyclocreatine in drinking water from 10 weeks to 8 months, vs untreated",significantly fewer
same,clustering of microglia around plaques,Trem2−/− 5XFAD mice; [9],significantly increased
same,number of microglia/high powered field (HPF) in plaque-bearing regions of the cortex,Trem2−/− 5XFAD mice; [9],significantly increased
same,plaque-associated neurite dystrophy,Trem2−/− 5XFAD mice; [9],significantly reduced
same,plaque accumulation,"Trem2−/− 5XFAD mice; cortex and hippocampus, 8 months of age",did not moderate
same,density of plaques (methoxy-X04 staining intensity),Trem2−/− 5XFAD mice; [10],resembled that of plaques in 5XFAD mice
same,plaque shape complexity,Trem2−/− 5XFAD mice; [10],not significantly altered
same,Spp1+ microglia,Trem2−/− 5XFAD mice; cyclocreatine-treated Trem2−/− 5XFAD mice vs untreated Trem2−/− 5XFAD mice,significantly more
same,autophagy (LC3 immunoblot),Trem2−/− BMDMs [5],less autophagy
same,mTOR signaling,Trem2−/− BMDMs [5],increased mTOR signaling
same,autophagy (LC3II/LC3I ratio),[6],significantly limited
same,microglial mTOR signaling,[6],restored
same,accumulation in the brain,[7]; mouse brain in vivo,can accumulate and function as a phosphagen in the mouse brain
same,transport across membranes,"[7]; mouse, in vivo",passively transported across membranes
"NC(=O)c1ccc[n+]([C@@H]2O[C@H](COP(=O)([O-])O)[C@@H](O)[C@H]2O)c1 [NMN, nicotinamide mononucleotide]",autophagy,[1],prevent
same,cell death,[1],prevent
same,metabolic activity / metabolic capacity,[1],rescue
